According to patent US10350187B2, “Methods and composition for suppression of pathogenic bacterial growth, fungal growth, or microbial growth in or on skin” (priority 2017, dated 2019):

Columns and labels:
M. globosa [1] = assay: M. globosa growth in liquid MLNB media (Example 3); type: cell-based
Protocol: (§1) At appropriate time intervals (0 h, 24 h, 48 h, 72 h, and 168 h) 1 mL aliquots of the cell suspension were withdrawn and plated on MLNA. All the experiments were performed in duplicate.

M. restricta MYA-4611 [2] = assay: M. restricta growth in liquid MLNB media (Example 3); type: cell-based
Protocol: as §1

M. restricta MYA-4611 [3] = assay: M. restricta growth on solid media with composition and individual component supplementation (Example 3); conditions: individual component supplementation, after 5 days
M. globosa [4] = assay: M. globosa growth on solid media with composition and individual component supplementation (Example 3); conditions: individual component supplementation, after 5 days

In the case of N[C@@H](CC(=O)O)C(=O)O [L-Asp, L-aspartic acid], the “M. globosa growth in liquid MLNB media” value (M. globosa [1]; 0.46% L-Asp, t = 24 h) is reported as 14 cfu/mL, the “M. globosa growth in liquid MLNB media” value (M. globosa [1]; 0.46% L-Asp, t = 48 h) is reported as 10 cfu/mL and the “M. globosa growth in liquid MLNB media” value (M. globosa [1]; 0.46% L-Asp, t = 72 h) is reported as 6 cfu/mL. The “M. globosa growth in liquid MLNB media” value (M. globosa [1]; 0.46% L-Asp, t = 168 h) was 1 cfu/mL, the “M. restricta growth in liquid MLNB media” value (M. restricta MYA-4611 [2]; 0.46% L-Asp, t = 24 h) was 15 cfu/mL and the “M. restricta growth in liquid MLNB media” value (M. restricta MYA-4611 [2]; 0.46% L-Asp, t = 48 h) was 11 cfu/mL. The “M. restricta growth in liquid MLNB media” value (M. restricta MYA-4611 [2]; 0.46% L-Asp, t = 72 h) was 10 cfu/mL, the “M. restricta growth in liquid MLNB media” value (M. restricta MYA-4611 [2]; 0.46% L-Asp, t = 168 h) was 14 cfu/mL and the “growth on solid media” value (M. restricta MYA-4611 [3]; 0.46% L-Asp) was “support some growth”. The “growth on solid media” value (M. globosa [4]; 0.46% L-Asp) was “support some growth”.

In the case of NC(=O)c1cccnc1 [Niacinamide, niacinamide, reference compound], the “M. globosa growth in liquid MLNB media” value (M. globosa [1]; 0.5% Niacinamide, t = 24 h) is reported as 2 cfu/mL, the “M. globosa growth in liquid MLNB media” value (M. globosa [1]; 0.5% Niacinamide, t = 48 h) is reported as 0 cfu/mL and the “M. globosa growth in liquid MLNB media” value (M. globosa [1]; 0.5% Niacinamide, t = 72 h) is reported as 0 cfu/mL. The “M. globosa growth in liquid MLNB media” value (M. globosa [1]; 0.5% Niacinamide, t = 168 h) was 0 cfu/mL, the “M. restricta growth in liquid MLNB media” value (M. restricta MYA-4611 [2]; 0.5% Niacinamide, t = 24 h) was 20 cfu/mL and the “M. restricta growth in liquid MLNB media” value (M. restricta MYA-4611 [2]; 0.5% Niacinamide, t = 48 h) was 5 cfu/mL. For the same compound, the “M. restricta growth in liquid MLNB media” value (M. restricta MYA-4611 [2]; 0.5% Niacinamide, t = 72 h) was 0 cfu/mL, the “M. restricta growth in liquid MLNB media” value (M. restricta MYA-4611 [2]; 0.5% Niacinamide, t = 168 h) was 0 cfu/mL and the “growth on solid media” value (M. restricta MYA-4611 [3]; 0.5% niacinamide) was “support some growth”. The “growth on solid media” value (M. globosa [4]; 0.5% niacinamide) was “support some growth”.

For conjugated linoleic acid [CLA], the “M. globosa growth in liquid MLNB media” value (M. globosa [1]; 1.5% CLA, t = 24 h) was 2 cfu/mL, the “M. globosa growth in liquid MLNB media” value (M. globosa [1]; 1.5% CLA, t = 48 h) was 0 cfu/mL and the “M. globosa growth in liquid MLNB media” value (M. globosa [1]; 1.5% CLA, t = 72 h) was 0 cfu/mL. The “M. globosa growth in liquid MLNB media” value (M. globosa [1]; 1.5% CLA, t = 168 h) was 0 cfu/mL, the “M. restricta growth in liquid MLNB media” value (M. restricta MYA-4611 [2]; 1.5% CLA, t = 24 h) was 7 cfu/mL and the “M. restricta growth in liquid MLNB media” value (M. restricta MYA-4611 [2]; 1.5% CLA, t = 48 h) was 0 cfu/mL. The “M. restricta growth in liquid MLNB media” value (M. restricta MYA-4611 [2]; 1.5% CLA, t = 72 h) was 0 cfu/mL, the “M. restricta growth in liquid MLNB media” value (M. restricta MYA-4611 [2]; 1.5% CLA, t = 168 h) was 0 cfu/mL and the “growth on solid media” value (M. restricta MYA-4611 [3]; 1.5% CLA) was “support some growth”. For the same compound, the “growth on solid media” value (M. globosa [4]; 1.5% CLA) was “support some growth”.
